# Measurements taken from patent publication US4110327A, “2,3 Diketo-piperazinocarbonylamino alkanoic acids and derivatives” (Toyama Chemical Co., Ltd., priority 1974, dated 1978).
# Tests used:
# [1] = tested on: Klebsiella pneumoniae; test: MIC against clinical isolates; format: cell-based; conditions: unit assumed
# [2] = tested on: Staphylococcus aureus; test: MIC against clinical isolates; format: cell-based; conditions: unit assumed
# [3] = tested on: Proteus morganii; test: MIC against clinical isolates; format: cell-based; conditions: clinical isolate, unit assumed
# [4] = tested on: Pseudomonas aeruginosa I.F.O.; test: MIC against standard strain, plate method; format: cell-based; conditions: unit assumed
# Method in brief: (§1)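 Plate-method MIC. Medium: heart infusion agar, pH 7.4. Inoculum: 10^4 cells per plate (10^6 cells/ml).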
# [5] = tested on: Klebsiella pneumoniae; test: MIC against standard strain, plate method; format: cell-based; conditions: unit assumed
# Method in brief: as §1
# [6] = tested on: Staphylococcus aureus 209p; test: MIC against standard strain, plate method; format: cell-based; conditions: unit assumed
# Method in brief: as §1
# [7] = tested on: Proteus vulgaris 3027; test: MIC against standard strain, plate method; format: cell-based; conditions: Proteus vulgaris 3027, standard strain; unit assumed
# Method in brief: as §1
# [8] = tested on: Escherichia coli NIHJ; test: MIC against standard strain, plate method; format: cell-based; conditions: unit assumed
# Method in brief: as §1
# [9] = tested on: Proteus rettgeri; test: MIC against clinical isolates; format: cell-based; conditions: clinical isolate, unit assumed
# [10] = tested on: β-lactamase; test: Resistant activity against β-lactamase, iodometric assay; format: biochemical, Pseudomonas aeruginosa GN 238; conditions: relative to Potassium Penicillin G = 100
# Experimental: (3) Resistant activity against β-lactamase, Pseudomonas aergionan GN 238:
# The resistant activity of each compound against β-lactamase was measured in the manner described below.
# β-Lactamase was prepared from Pseudomonas aeruginosa GN 238. This microorganism was cultured in 100 ml of a medium containing 2 g of yeast extract, 10 g of polypeptone, 2 g of glucose, 7 g of disodium hydrogen phosphate, 2 g of potassium dihydrogen phosphate, 1.2 g of ammonium sulfate and 0.4 g of magnesium sulfate, per liter, in a 500-ml Erlenmeyer flask for 6 hrs. at 37° C with shaking. The resulting cells were collected by centrifugation (5,000 r.p.m. × 10 min.), washed three times with 0.1 M phosphate buffer (pH 7.0). Subsequently, the cells were subjected to sonication (20 KHz, 20 min.) and then centrifuged at 15,000 r.p.m. for 60 min. By using the supernatant of enzyme fluid, the resistance of each compound against β-lactamase was determined by the iodometric assay method. Each numeral shown in Table 7 is a relative activity value calculated by assuming as 100 the activity of the control Potassium Penicillin G.
# [11] = tested on: Proteus mirabilis; test: MIC against clinical isolates; format: cell-based; conditions: clinical isolate, unit assumed
# [12] = tested on: Escherichia coli; test: MIC against clinical isolates; format: cell-based; conditions: unit assumed
# [13] = tested on: Proteus vulgaris; test: MIC against clinical isolates; format: cell-based; conditions: clinical isolate, unit assumed
# [14] = tested on: Pseudomonas aeruginosa; test: MIC against clinical isolates; format: cell-based; conditions: unit assumed
# [15] = tested on: Salmonella typhi-murium; test: MIC against clinical isolates; format: cell-based; conditions: unit assumed
# [16] = tested on: Shigella flexneri; test: MIC against clinical isolates; format: cell-based; conditions: clinical isolate JS 11215; unit assumed
# Experimental: (§2) The minimum inhibitory concentrations (MIC) was determined by the plate method disclosed in "Chemotherapy" (Japan), Vol. 16, (1968), pages 98 - 99. The culture medium used was a Heart infusion agar (pH 7.4). The number of the cells per plate used in the inoculum as 10^4 (10^6 cells/ml).
# (§3) MIC was determined in the same manner as in the preceding paragraph (1).
# [17] = tested on: Shigella sonnei; test: MIC against clinical isolates; format: cell-based; conditions: clinical isolate JS 11232; unit assumed
# Experimental: as §2, §3
# [18] = tested on: Salmonella typhi; test: MIC against clinical isolates; format: cell-based; conditions: unit assumed
# [19] = clinical isolate GN (number not given; Table 5-3)
compound,measurement,setting,value
CCCCCCCCN1CCN(C(=O)N[C@@H](C(=O)N[C@@H]2C(=O)N3[C@@H]2SC(C)(C)[C@@H]3C(=O)O)c2ccccc2)CC1=O [compound 30],MIC,[1]; clinical isolate GN 917,25 µg/mL
same,MIC,[1]; clinical isolate GN 3850,25 µg/mL
same,MIC,[1]; clinical isolate GN 4081,100 µg/mL
same,MIC,[1]; clinical isolate GN 4117,100 µg/mL
same,MIC,[2]; clinical isolate F-1,3.13 µg/mL
same,MIC,[2]; clinical isolate F-2,0.79 µg/mL
same,MIC,[2]; clinical isolate F-3,0.79 µg/mL
same,MIC,[2]; clinical isolate F-4,3.13 µg/mL
same,MIC,[2]; clinical isolate F-5,100 µg/mL
same,MIC,[2]; clinical isolate MS 8588,1.57 µg/mL
same,MIC,[2]; clinical isolate MS 8596,1.57 µg/mL
same,MIC,[2]; clinical isolate MS 8619,< 0.4 µg/mL
same,MIC,[2]; clinical isolate MS 8684,1.57 µg/mL
same,MIC,[2]; clinical isolate MS 8713,1.57 µg/mL
same,MIC,[3],3.13 µg/mL
same,MIC,[4],25 µg/mL
same,MIC,[5],6.25 µg/mL
same,MIC,[6],< 1.57 µg/mL
same,MIC,[7],3.13 µg/mL
same,MIC,[8],< 1.57 µg/mL
same,MIC,[9],12.5 µg/mL
same,Relative activity,[10],3%
same,MIC,[11],3.13 µg/mL
same,MIC,[12]; clinical isolate GN 3435,12.5 µg/mL
same,MIC,[12]; clinical isolate GN 3452,25 µg/mL
same,MIC,[12]; clinical isolate GN 3465,50 µg/mL
same,MIC,[12]; clinical isolate GN 3481,25 µg/mL
same,MIC,[12]; clinical isolate GN 3611,> 200 µg/mL
same,MIC,[12]; clinical isolate K-1,12.5 µg/mL
same,MIC,[12]; clinical isolate K-2,25 µg/mL
same,MIC,[12]; clinical isolate K-3,> 200 µg/mL
same,MIC,[12]; clinical isolate K-4,12.5 µg/mL
same,MIC,[13],3.13 µg/mL
same,MIC,[14]; clinical isolate GN 82,25 µg/mL
same,MIC,[14]; clinical isolate GN 163,25 µg/mL
same,MIC,[14]; clinical isolate GN 221,50 µg/mL
same,MIC,[14]; clinical isolate GN 376,50 µg/mL
same,MIC,[14]; clinical isolate GN 383,50 µg/mL
same,MIC,[14]; clinical isolate GN 1035,50 µg/mL
same,MIC,[14]; clinical isolate GN 1091,25 µg/mL
same,MIC,[14]; clinical isolate GN 2565,50 µg/mL
same,MIC,[14]; clinical isolate GN 2987,12.5 µg/mL
same,MIC,[14]; [19],50 µg/mL
same,MIC,[14]; clinical isolate S-1,50 µg/mL
same,MIC,[14]; clinical isolate S-2,50 µg/mL
same,MIC,[14]; clinical isolate S-3,100 µg/mL
same,MIC,[14]; clinical isolate S-4,50 µg/mL
"CC1(C)S[C@@H]2[C@H](NC(=O)C(C(=O)O)c3ccccc3)C(=O)N2[C@H]1C(=O)O (stereo partly drawn) [Sodium Carbenicillin, SodiumCarbenicillin, reference compound]",MIC,[1]; clinical isolate GN 917,> 200 µg/mL
same,MIC,[1]; clinical isolate GN 4081,> 200 µg/mL
same,MIC,[1]; clinical isolate GN 4117,> 200 µg/mL
same,MIC,[2]; clinical isolate F-5,> 200 µg/mL
same,MIC,[2]; clinical isolate MS 8619,0.79 µg/mL
same,MIC,[3],0.4 µg/mL
same,MIC,[4],50 µg/mL
same,MIC,[5],> 200 µg/mL
same,MIC,[6],< 1.57 µg/mL
same,MIC,[7],< 1.57 µg/mL
same,MIC,[8],< 1.57 µg/mL
same,MIC,[9],> 200 µg/mL
same,Relative activity,[10],116%
same,MIC,[11],0.8 µg/mL
same,MIC,[12]; clinical isolate GN 3465,> 200 µg/mL
same,MIC,[12]; clinical isolate GN 3611,> 200 µg/mL
same,MIC,[12]; clinical isolate K-3,> 200 µg/mL
same,MIC,[13],0.8 µg/mL
same,MIC,[14]; clinical isolate GN 82,100 µg/mL
same,MIC,[14]; clinical isolate GN 163,50 µg/mL
same,MIC,[14]; clinical isolate GN 221,25 µg/mL
same,MIC,[14]; clinical isolate GN 376,50 µg/mL
same,MIC,[14]; clinical isolate GN 383,30 µg/mL
same,MIC,[14]; clinical isolate GN 1035,> 200 µg/mL
same,MIC,[14]; clinical isolate GN 1091,100 µg/mL
same,MIC,[14]; clinical isolate GN 2565,200 µg/mL
same,MIC,[14]; clinical isolate GN 2987,50 µg/mL
same,MIC,[14]; [19],50 µg/mL
same,MIC,[14]; clinical isolate S-1,200 µg/mL
same,MIC,[14]; clinical isolate S-2,200 µg/mL
same,MIC,[14]; clinical isolate S-3,200 µg/mL
same,MIC,[14]; clinical isolate S-4,200 µg/mL
"CCCN1CCN(C(=O)N[C@@H](C(=O)N[C@@H]2C(=O)N3[C@@H]2SC(C)(C)[C@@H]3C(=O)O)c2ccccc2)C(=O)C1=O (single isomer, unassigned) [compound 38]",MIC,[1]; clinical isolate GN 3850,6.25 µg/mL
same,MIC,[1]; clinical isolate GN 4081,50 µg/mL
same,MIC,[1]; clinical isolate GN 4117,50 µg/mL
same,MIC,[15]; clinical isolate SL 858,3.13 µg/mL
same,MIC,[15]; clinical isolate SL 2136,200 µg/mL
same,MIC,[2]; clinical isolate F-1,6.25 µg/mL
same,MIC,[2]; clinical isolate F-3,0.79 µg/mL
same,MIC,[2]; clinical isolate F-4,6.25 µg/mL
same,MIC,[2]; clinical isolate F-5,> 200 µg/mL
same,MIC,[2]; clinical isolate MS 8619,0.79 µg/mL
same,MIC,[2]; clinical isolate MS 8713,6.25 µg/mL
same,MIC,[3],< 0.4 µg/mL
same,MIC,[4],6.25 µg/mL
same,MIC,[6],0.4 µg/mL
same,MIC,[7],0.4 µg/mL
same,MIC,[8],< 0.1 µg/mL
same,MIC,[9],12.5 µg/mL
same,Relative activity,[10],15%
same,MIC,[11],< 0.4 µg/mL
same,MIC,[12]; clinical isolate GN 3435,0.79 µg/mL
same,MIC,[12]; clinical isolate GN 3465,50 µg/mL
same,MIC,[12]; clinical isolate GN 3611,> 200 µg/mL
same,MIC,[12]; clinical isolate K-3,> 200 µg/mL
same,MIC,[12]; clinical isolate K-4,0.79 µg/mL
same,MIC,[16],25 µg/mL
same,MIC,[17],50 µg/mL
same,MIC,[13],< 0.4 µg/mL
same,MIC,[18]; clinical isolate SL 819,1.57 µg/mL
same,MIC,[18]; clinical isolate SL 2169,0.79 µg/mL
same,MIC,[14]; clinical isolate GN 221,6.25 µg/mL
same,MIC,[14]; clinical isolate GN 383,6.25 µg/mL
same,MIC,[14]; clinical isolate GN 1035,12.5 µg/mL
same,MIC,[14]; clinical isolate GN 2565,12.5 µg/mL
same,MIC,[14]; clinical isolate GN 2987,6.25 µg/mL
same,MIC,[14]; [19],6.25 µg/mL
same,MIC,[14]; clinical isolate S-1,12.5 µg/mL
same,MIC,[14]; clinical isolate S-2,12.5 µg/mL
same,MIC,[14]; clinical isolate S-3,12.5 µg/mL
same,MIC,[14]; clinical isolate S-4,12.5 µg/mL
"CN1CCN(C(=O)N[C@@H](C(=O)N[C@@H]2C(=O)N3[C@@H]2SC(C)(C)[C@@H]3C(=O)O)c2ccccc2)C(=O)C1=O (single isomer, unassigned) [compound 37]",MIC,[1]; clinical isolate GN 3850,25 µg/mL
same,MIC,[1]; clinical isolate GN 4081,200 µg/mL
same,MIC,[1]; clinical isolate GN 4117,100 µg/mL
same,MIC,[15]; clinical isolate SL 858,12.5 µg/mL
same,MIC,[15]; clinical isolate SL 2136,> 200 µg/mL
same,MIC,[2]; clinical isolate F-2,1.57 µg/mL
same,MIC,[2]; clinical isolate F-5,> 200 µg/mL
same,MIC,[2]; clinical isolate MS 8619,0.79 µg/mL
same,MIC,[3],0.79 µg/mL
same,MIC,[6],< 1.57 µg/mL
same,MIC,[7],< 1.57 µg/mL
same,MIC,[8],< 1.57 µg/mL
same,MIC,[9],25 µg/mL
same,Relative activity,[10],15%
same,MIC,[11],0.79 µg/mL
same,MIC,[12]; clinical isolate GN 3465,200 µg/mL
same,MIC,[12]; clinical isolate GN 3611,> 200 µg/mL
same,MIC,[12]; clinical isolate K-3,> 200 µg/mL
same,MIC,[16],> 200 µg/mL
same,MIC,[17],100 µg/mL
same,MIC,[13],< 0.4 µg/mL
same,MIC,[18]; clinical isolate SL 819,6.25 µg/mL
same,MIC,[18]; clinical isolate SL 2169,3.13 µg/mL
same,MIC,[14]; clinical isolate GN 383,25 µg/mL
same,MIC,[14]; clinical isolate GN 1035,50 µg/mL
same,MIC,[14]; clinical isolate GN 2565,25 µg/mL
same,MIC,[14]; clinical isolate GN 2987,25 µg/mL
same,MIC,[14]; [19],50 µg/mL
same,MIC,[14]; clinical isolate S-1,200 µg/mL
same,MIC,[14]; clinical isolate S-2,25 µg/mL
same,MIC,[14]; clinical isolate S-3,50 µg/mL
same,MIC,[14]; clinical isolate S-4,100 µg/mL
